Assay in all cases: DTP human tumour cell line panel, 48 h
The subject of assay [1] is HOP-62 NSCLC.
Assay [2] relates to SF-268 CNS.
In assay [3] the test system is SF-539 CNS.
In assay [4] the test system is SK-MEL-2 melanoma.
Assay [5] relates to UO-31 renal.
For assay [6], the system named is NCI-H226 lung.
Assay [7] concerns MCF7 breast.
Assay [8] deals with EKVX NSCLC.
Assay [9] deals with SN12C renal.

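1) Cells in 96-well plates. 2) Compound, 48 h, 5 concentrations. 3) Linear interpolation between surrounding doses. 4) Unreached endpoint = highest concentration. Abbreviation: GI50, concentration required for 50% inhibition of growth. The concentration for full growth arrest is given as TGI.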

For `COc1ccc(Nc2nc(N)c(C(=O)c3c[nH]c4ccccc34)s2)cc1`, the TGI in [1] was over 71.4 µM; in assay [2], over 100 µM; in assay [3], over 36.9 µM; in assay [4], over 72.5 µM; in assay [5], over 100 µM; in [6] it was 36.3 µM. Further, the TGI in assay [7] is 18.8 µM; in [8], over 100 µM; in assay [9], over 100 µM.

Consider `CCc1c(CNc2ccc(C(=O)NC(CC(=O)O)C(=O)O)cc2)ccc2nc(N)nc(N)c12` (centres undefined), for which the TGI in assay [1], in [2], in assay [3], in assay [4], in assay [5] and in assay [6] was over 1000 µM throughout. In addition, the TGI in assay [7], in [8] and in [9] was over 1000 µM throughout. In addition, the GI50 is 0.285 µM in assay [3]; over 1000 µM in [4]; 0.212 µM in assay [5]; over 1000 µM in [6]; 558 µM in assay [8].

`C[C@]12CCC(=O)[C@@H](CCC3=CC(=O)C=CC3=O)[C@@H]1CCC2=O`: the TGI in assay [1] was over 100 µM; in [2], 39.5 µM; in [3], 35.7 µM; in assay [4] it was 27.1 µM; in [5] it was 31.1 µM; in [6], 57.3 µM. Also, the total growth inhibition concentration (TGI) was 37.2 µM in assay [7], 47.5 µM in assay [8] and over 100 µM in assay [9].

As to `CCCCC1=C(C(=O)N2CCOCC2)C2(OCCO2)C1=O`, the TGI in assay [1] was found to be 54.1 µM; in [2] it was 86.7 µM; in assay [3], 46.5 µM; in [4] it was 71.7 µM; in assay [5], 30.3 µM; in [6], 20.5 µM. The TGI in [7] was over 100 µM; in assay [8], over 100 µM; in assay [9], 32.7 µM.

Regarding `COc1ccccc1C1Nn2c(nc3ccccc3c2=O)N1c1ccc(C)cc1` (centres undefined), the TGI stood at 20.2 µM in assay [1]; 25.1 µM in [2]; 12.1 µM in assay [3]; 25.3 µM in assay [4]; 21.2 µM in assay [5]; 9.94 µM in [6]. In addition, the TGI in assay [7] came out at 26.3 µM; in assay [8], 34.6 µM; in assay [9], 21.7 µM.

Turning to `CS(=O)(=O)Nc1ccc2c(c1)N(S(C)(=O)=O)CC2CCl` (centres undefined), the TGI in [1], in assay [2], in assay [3], in assay [4], in [5] and in assay [6] was over 100 µM in each case. Besides, the TGI in [7], in [8] and in [9] was over 100 µM in each case.

As for `C=C1C(OC2O[C@@H]3O[C@@]4(C)CC[C@H]5[C@H](C)CC[C@@H](C2=C)[C@@]35O4)O[C@@H]2O[C@@]3(C)CC[C@H]4[C@H](C)CC[C@@H]1[C@@]24O3` (some centres undefined), the TGI in [1], in assay [2], in assay [3], in [4], in assay [5] and in [6] was over 50 µM throughout. Further, the TGI in [7], in assay [8] and in assay [9] was over 50 µM each time.

`Cc1cc(S(=O)(=O)Nc2n[nH]c(-c3ccccn3)n2)c(S)cc1Cl`: the total growth inhibition concentration (TGI) in assay [1] amounted to 59 µM; in assay [2], 88.3 µM; in assay [3] it was 54.3 µM; in [4] it was 63.9 µM; in [5] it was 10.5 µM; in assay [6], 30.5 µM. Also, the TGI in assay [7] was over 100 µM; in [8] it was 92 µM; in assay [9], over 100 µM.

Regarding `O=C(CCc1cc(O)cc(O)c1)NCCCNC(=O)CCc1cc(O)cc(O)c1`, the total growth inhibition concentration (TGI) in assay [1], in assay [2], in assay [3], in assay [4], in assay [5] and in assay [6] was over 100 µM throughout. Also, the TGI in assay [7], in [8] and in assay [9] was over 100 µM throughout.

For the compound `CC(C)(C)OC(=O)NC(Cc1ccccc1)NC(=O)NC(=O)OCc1ccccc1` (centres undefined), the TGI in assay [1] is over 100 µM; in assay [2], over 100 µM; in [3], 60.8 µM; in assay [4], over 100 µM; in assay [5], over 100 µM; in assay [6], over 100 µM. Besides, the TGI in assay [7], in [8] and in assay [9] was over 100 µM in each case.

For `CN(C)CC1CCC/C(=C\c2ccc(OC(=O)c3ccc(Cl)cc3)cc2)C1=O` (centres undefined), the TGI worked out at 12.6 µM in assay [1]; 9.07 µM in [2]; 5.41 µM in assay [3]; 10.6 µM in [4]; 2.97 µM in [5]; 9.77 µM in assay [6]. In addition, the TGI in assay [7] turned out to be 1.58 µM; in assay [8] it was 6.16 µM; in assay [9], 4.84 µM.

As a reminder, the TGI is the concentration giving total growth inhibition. A lower TGI goes with greater sensitivity of the cells. What is called GI50 is the concentration that inhibits growth by half.

The values are drawn from PubChem BioAssay (NCI).
